According to patent EP0500137A1, “1,2,4-Triazolo[1,5-a]pyrimidine derivatives, a process for preparing them as well as medicaments containing them and the use of them” (EGIS GYOGYSZERGYAR, priority 1991, dated 1992):

Test system: gastric acid secretion
Assay: gastric acid secretion inhibiting effect, method of Shay (pylorus bound, free acid titrated)
Type: in vivo, Rats (Wistar breed)
Details: given 3 hours before the operation, free acid determined 4 hours after the operation, inhibition in relation to the control
Experimental: Rats of both sexes (Wistar breed, weighing 180-240 g) were fastened for 48 hours. On the day of the test the pylorus of the animals was bound under ether narcosis. The test compounds were administered orally 3 hours before the operation. 4 hours after the operation the animals were anaesthetized and the stomach was removed, the content thereof was centrifuged and the amount of the free acid was determined by titration, in the presence of Töpfer reagent. The inhibition in relation to the control is calculated in percentage.

CSc1nc2nc3c(c(Cl)n2n1)CCCC3 [Example 6, 5-Chloro-2-methylthio-6,7,8,9-tetrahydro-1,2,4-triazolo[5,1-b]quinazoline]
Inhibition % (Dose 60 mg/kg peroral): 100%

CSc1nc2nc3c(c(Cl)n2n1)CCC3 [Example 2, 5-Chloro-2-methylthio-6,7-dihydro-8H-cyclopenta[d]-1,2,4-triazolo[1,5-a]pyrimidine]
Inhibition % (Dose 30 mg/kg peroral): 73%

Clc1c2c(nc3nc(N4CCOCC4)nn13)CCCC2 [Example 12, 5-Chloro-2-morpholino-6,7,8,9-tetrahydro-1,2,4-triazolo[5,1-b]quinazoline]
Inhibition % (Dose 200 mg/kg peroral): 85%

COc1cc(C(=S)N2CCOCC2)cc(OC)c1OC [Trithiozine, 3,4,5-Trimethoxythio-benzoic acid morpholide, reference compound]
Inhibition % (Dose 400 mg/kg peroral): 63%
